Laboratory results reported in patent US20160166604A1, “Thiol-Sensitive Positive Inotropes” (priority 2005, published 2016).

What was measured:
[1] = target: T1, RyR2 (Mus musculus, UniProt E9Q401); assay: RyR2 single channel recordings in planar lipid bilayers; assay type: biochemical; conditions: for open probability of the channel (Po): control 0.16±0.03
T1 construct: endogenous in cells; host or cells: freshly isolated adult mouse cardiac myocytes
Description: Recording of single RyR2 in lipid bilayers was performed as previously described. Jiang, M. T. et al., Circ. Res., 91, 1015-1022 (2002). Briefly, a phospholipid bilayer of PE:PS (1:1 dissolved in n-decane to 20 mg/ml) was formed across an aperture of ˜300 μm diameter in a delrin cup. The cis chamber (900 μl) was the voltage control side connected to the head stage of a 200 A Axopatch amplifier, while the trans chamber (800 μl) was held at virtual ground. Both chambers were initially filled with 50 mM cesium methanesulfonate and 10 mM Tris/Hepes pH 7.2. After bilayer formation, cesium methanesulfonate was raised to 300 mM in the cis side and 100 to 200 μg of mouse cardiac SR vesicles was added. After detection of channel openings, Cs^+ in the trans chamber was raised to 300 mM to collapse the chemical gradient. Single channel data were collected at steady voltages (−30 mV) for 2-5 min. Channel activity was recorded with a 16-bit VCR-based acquisition and storage system at a 10 kHz sampling rate. Signals were analyzed after filtering with an 8-pole Bessel filter at a sampling frequency of 1.5-2 kHz. Data acquisition and analysis were done with Axon Instruments software and hardware (pClamp v8.0, Digidata 200 AD/DA interface).
To further test whether HNO directly interacted with RyR2 proteins to increase open probability, purified reconstituted RyR2 were expressed in planar lipid bilayers and steady-state activity recorded with or without AS. The cis (cytosolic) solution contained 10 μM activating Ca^2+ and recordings were made at positive 30 mV holding potential. […] The probability of the channel being open (Po) increased from an average 0.16±0.03 without AS to 0.46±0.07 at 0.3 mM AS added to the cytoplasmic side of the channel (n=4). This was reversible upon addition of 2 mM DTT (0.11±0.04). These findings support direct HNO-RyR2 interaction likely via a reversible reaction with thiol groups in the protein.

[2] = Kinetics of AS decomposition in Tyrode solution; assay type: physicochemical; conditions: after ~1000 sec (16 min); Tyrode solution pH 7.4, room temperature; identical for 0.1-1 mM AS
Description: FIG. IA-FIG. 1D show the effects of HNO donor AS on sarcomere shortening in isolated mouse ventricular myocytes.
At physiological pH, AS decomposes to produce HNO and nitrite. Whether nitrite could play a role in the observed responses was therefore tested. […] Identical results were obtained for 0.1-1 mM AS. Thus, at time of functional analysis, 25-250 μM NO2^− is expected; however, such levels (and higher or lower doses) had no effect on sarcomere shortening (FIG. 1H).

T1 sequence (E9Q401 whole entry): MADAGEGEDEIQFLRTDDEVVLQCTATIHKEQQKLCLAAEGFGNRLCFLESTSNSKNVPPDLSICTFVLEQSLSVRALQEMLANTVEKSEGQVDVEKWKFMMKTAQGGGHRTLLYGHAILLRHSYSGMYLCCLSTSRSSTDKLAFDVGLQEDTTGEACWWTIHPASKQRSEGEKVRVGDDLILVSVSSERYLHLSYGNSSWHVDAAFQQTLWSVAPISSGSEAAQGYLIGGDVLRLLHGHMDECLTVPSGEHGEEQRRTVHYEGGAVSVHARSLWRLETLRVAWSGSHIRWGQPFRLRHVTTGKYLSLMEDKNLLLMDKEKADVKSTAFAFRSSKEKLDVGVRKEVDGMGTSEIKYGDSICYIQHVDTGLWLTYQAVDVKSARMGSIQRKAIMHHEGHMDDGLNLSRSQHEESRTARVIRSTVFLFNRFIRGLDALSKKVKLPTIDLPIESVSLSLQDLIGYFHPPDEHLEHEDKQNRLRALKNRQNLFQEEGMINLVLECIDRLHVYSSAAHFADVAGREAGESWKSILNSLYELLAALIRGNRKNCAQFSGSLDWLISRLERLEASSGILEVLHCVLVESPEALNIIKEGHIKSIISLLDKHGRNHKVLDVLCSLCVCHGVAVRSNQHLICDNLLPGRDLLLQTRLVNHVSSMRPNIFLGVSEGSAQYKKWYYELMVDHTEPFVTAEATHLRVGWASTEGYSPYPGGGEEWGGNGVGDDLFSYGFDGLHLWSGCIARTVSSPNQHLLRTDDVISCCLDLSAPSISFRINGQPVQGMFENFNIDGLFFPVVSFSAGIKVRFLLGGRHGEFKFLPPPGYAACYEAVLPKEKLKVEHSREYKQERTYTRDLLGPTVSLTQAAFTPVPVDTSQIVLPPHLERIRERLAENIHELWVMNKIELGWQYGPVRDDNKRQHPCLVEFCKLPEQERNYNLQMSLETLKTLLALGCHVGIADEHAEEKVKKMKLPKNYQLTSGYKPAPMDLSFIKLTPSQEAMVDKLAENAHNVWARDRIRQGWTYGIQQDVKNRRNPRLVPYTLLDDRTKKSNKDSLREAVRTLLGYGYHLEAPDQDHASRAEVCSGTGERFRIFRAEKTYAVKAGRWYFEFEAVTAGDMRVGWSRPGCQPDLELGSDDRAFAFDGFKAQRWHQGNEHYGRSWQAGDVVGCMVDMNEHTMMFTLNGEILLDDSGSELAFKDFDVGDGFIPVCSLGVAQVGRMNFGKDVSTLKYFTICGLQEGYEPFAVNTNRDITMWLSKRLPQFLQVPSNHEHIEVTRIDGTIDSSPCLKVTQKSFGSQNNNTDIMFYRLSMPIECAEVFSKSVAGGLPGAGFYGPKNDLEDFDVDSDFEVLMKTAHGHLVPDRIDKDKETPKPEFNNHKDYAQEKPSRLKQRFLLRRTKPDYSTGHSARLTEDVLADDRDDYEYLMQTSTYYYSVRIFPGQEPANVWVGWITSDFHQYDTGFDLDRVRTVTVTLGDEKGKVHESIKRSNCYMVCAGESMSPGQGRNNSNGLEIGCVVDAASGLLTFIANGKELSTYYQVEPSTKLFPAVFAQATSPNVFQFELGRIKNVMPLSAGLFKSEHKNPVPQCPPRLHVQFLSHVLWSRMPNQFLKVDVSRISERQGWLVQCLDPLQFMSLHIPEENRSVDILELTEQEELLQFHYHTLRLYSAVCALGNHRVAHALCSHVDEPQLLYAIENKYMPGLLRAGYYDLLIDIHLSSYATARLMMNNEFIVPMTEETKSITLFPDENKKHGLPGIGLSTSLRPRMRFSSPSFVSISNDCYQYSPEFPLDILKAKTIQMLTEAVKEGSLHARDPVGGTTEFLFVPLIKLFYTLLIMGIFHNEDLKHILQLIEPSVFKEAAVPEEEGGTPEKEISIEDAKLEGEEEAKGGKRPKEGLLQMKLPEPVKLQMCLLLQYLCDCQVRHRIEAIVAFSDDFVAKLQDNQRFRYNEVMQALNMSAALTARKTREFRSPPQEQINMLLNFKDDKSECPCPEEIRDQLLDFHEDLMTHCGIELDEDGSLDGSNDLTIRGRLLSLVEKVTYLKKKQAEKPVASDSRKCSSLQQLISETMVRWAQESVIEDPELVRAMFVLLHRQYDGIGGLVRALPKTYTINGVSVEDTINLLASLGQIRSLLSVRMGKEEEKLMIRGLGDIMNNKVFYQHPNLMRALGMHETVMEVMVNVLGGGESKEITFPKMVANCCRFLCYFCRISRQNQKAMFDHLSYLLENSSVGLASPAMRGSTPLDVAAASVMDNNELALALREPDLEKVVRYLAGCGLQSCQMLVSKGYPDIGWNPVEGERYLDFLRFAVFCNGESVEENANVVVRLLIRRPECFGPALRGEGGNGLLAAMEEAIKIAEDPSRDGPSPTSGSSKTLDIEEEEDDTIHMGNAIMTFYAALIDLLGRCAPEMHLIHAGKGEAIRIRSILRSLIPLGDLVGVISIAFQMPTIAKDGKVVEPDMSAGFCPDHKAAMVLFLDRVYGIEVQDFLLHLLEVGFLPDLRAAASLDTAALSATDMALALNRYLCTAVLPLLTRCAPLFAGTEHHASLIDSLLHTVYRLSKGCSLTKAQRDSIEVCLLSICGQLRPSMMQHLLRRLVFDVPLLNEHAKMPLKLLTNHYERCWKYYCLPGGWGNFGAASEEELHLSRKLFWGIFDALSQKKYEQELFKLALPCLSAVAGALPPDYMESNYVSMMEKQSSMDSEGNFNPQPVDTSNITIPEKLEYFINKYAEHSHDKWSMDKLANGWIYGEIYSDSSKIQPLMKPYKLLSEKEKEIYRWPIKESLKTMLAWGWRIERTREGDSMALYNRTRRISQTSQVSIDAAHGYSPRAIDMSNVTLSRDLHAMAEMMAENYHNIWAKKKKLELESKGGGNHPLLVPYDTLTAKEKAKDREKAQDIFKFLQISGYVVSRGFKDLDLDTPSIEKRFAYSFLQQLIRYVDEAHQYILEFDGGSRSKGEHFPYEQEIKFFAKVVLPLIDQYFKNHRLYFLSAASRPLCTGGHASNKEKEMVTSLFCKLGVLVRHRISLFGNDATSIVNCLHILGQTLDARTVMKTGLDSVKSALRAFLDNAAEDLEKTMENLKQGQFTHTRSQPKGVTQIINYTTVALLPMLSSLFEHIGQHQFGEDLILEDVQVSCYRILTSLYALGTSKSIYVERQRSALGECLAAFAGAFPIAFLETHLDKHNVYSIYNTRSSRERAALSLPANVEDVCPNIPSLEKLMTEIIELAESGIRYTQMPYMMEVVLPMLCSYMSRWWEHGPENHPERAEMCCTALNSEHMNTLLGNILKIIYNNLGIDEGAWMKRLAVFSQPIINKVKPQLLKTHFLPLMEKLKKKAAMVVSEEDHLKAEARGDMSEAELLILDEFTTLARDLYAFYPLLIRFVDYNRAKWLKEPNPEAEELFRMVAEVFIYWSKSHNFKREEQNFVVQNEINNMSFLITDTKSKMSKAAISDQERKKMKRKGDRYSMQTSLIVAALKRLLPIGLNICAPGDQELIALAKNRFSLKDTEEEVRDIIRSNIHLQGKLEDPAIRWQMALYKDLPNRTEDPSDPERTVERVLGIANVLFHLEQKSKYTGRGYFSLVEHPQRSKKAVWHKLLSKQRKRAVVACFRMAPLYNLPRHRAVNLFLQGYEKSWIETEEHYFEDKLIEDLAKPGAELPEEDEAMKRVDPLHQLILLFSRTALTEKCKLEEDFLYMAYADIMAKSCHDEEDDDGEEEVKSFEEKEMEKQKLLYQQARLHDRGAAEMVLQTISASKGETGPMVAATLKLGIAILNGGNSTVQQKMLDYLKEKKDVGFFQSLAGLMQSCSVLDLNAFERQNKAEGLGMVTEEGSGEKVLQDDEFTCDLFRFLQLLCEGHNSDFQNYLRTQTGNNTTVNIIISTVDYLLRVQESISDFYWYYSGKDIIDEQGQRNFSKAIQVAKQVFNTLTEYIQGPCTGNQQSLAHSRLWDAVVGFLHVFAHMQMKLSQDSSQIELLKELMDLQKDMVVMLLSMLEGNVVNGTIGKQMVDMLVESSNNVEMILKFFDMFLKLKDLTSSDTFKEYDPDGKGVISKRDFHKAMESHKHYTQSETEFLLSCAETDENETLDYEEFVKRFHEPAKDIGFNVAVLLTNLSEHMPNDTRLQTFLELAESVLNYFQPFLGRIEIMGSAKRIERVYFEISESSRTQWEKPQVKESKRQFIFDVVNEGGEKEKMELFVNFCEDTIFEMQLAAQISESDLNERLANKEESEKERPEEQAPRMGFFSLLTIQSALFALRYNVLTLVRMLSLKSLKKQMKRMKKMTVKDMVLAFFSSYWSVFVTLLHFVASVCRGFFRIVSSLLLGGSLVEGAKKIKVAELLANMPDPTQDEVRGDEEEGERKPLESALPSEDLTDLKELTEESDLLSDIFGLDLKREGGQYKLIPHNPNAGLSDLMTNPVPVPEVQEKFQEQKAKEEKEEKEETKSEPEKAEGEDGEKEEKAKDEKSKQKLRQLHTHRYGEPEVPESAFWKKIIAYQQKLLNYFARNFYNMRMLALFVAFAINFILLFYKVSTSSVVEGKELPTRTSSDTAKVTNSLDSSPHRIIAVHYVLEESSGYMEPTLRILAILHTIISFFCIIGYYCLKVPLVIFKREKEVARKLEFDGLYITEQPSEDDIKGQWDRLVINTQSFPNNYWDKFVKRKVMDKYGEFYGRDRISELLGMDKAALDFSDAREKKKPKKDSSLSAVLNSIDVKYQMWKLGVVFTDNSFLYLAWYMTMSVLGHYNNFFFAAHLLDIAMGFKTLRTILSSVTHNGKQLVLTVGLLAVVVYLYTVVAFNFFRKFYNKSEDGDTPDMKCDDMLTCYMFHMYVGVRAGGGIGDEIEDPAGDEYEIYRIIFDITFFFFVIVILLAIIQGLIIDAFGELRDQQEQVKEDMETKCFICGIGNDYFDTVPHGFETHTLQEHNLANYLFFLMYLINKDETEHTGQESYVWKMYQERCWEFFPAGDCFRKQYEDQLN

- open probability of the channel (Po) ([1]; 0.1 mM AS, cis side): 0.25±0.05
- open probability of the channel (Po) ([1]; 0.3 mM AS, cytoplasmic side): 0.46±0.07
- open probability of the channel (Po) ([1]; 1.0 mM AS, cis side): 0.69±0.11
- Po of AS-activated channels after DTT ([1]; 2 mM DTT added to cis side): 0.11±0.04
- unitary channel conductance ([1]; AS 0.1 to 1 mM): without altering
- nitrite generation on AS decomposition [2]: 25%
Structure (SMILES): [Na+].[Na+].[O-][N+]([O-])=NO [AS, Angeli's salt]
